Data set [1] concerns the target hCB1 (Homo sapiens, UniProt P21554). The experiment in a line: Antagonism of CB1 receptors expressed in CHO cells, cAMP assay against CP 55,940 (Protocol IX.1). It counts as cell-based. Further details: expressed in transfected cells; host or cells: CHO (h-CB1/CHO, G418-selected). As to conditions: h-CB1/CHO cells, cAMP, vs 30 nM CP 55,940; for inhibition at 10 µM: read-out: hCB1 Antagonism.

In data set [2] the target is T1, hCB2 (Homo sapiens, UniProt P34972). The experiment in a line: In vitro binding assay using hCB2-CHO membranes, [3H]-CP-55,940 displacement (Protocol IV). The note with it: for inhibition at 0.3 µM: 1 h, read-out: % Displacement Protocol IV. Further details: expressed in transfected cells; host or cells: CHO (hCB2-CHO, generated in-house). In outline:
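Compounds were tested at a single 300 nM final concentration for displacing 0.75 nM [3H]-CP-55,940 from hCB2-CHO membranes (1 h, 30 °C, 50 mM Tris pH 7.4, 5 mM MgCl2, 1 mM EDTA, 0.1% BSA). Filter-bound radioactivity was counted, with 0.5 μM unlabelled CP-55,940 for nonspecific binding; results are % displacement.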

The target in data set [3] is T1, hCB2. Description: Antagonism of CB2 receptors expressed in CHO cells, cAMP assay against CP 55,940 (Protocol IX.1). It counts as cell-based. Further details: expressed in transfected cells; host or cells: CHO (h-CB2/CHO, G418-selected). The note with it: CHO, h-CB2/CHO cells, vs 10 nM CP 55,940. In a few lines:
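h-CB2/CHO cells in Krebs buffer with 0.1% FAF-BSA and 1 mM IBMX were pre-incubated 10 min with antagonist, then stimulated 30 min at room temperature with 10 nM CP 55,940 plus 10 μM forskolin. cAMP quantified by chemiluminescence; values from nonlinear regression of dose–response curves.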

Data set [4] deals with T1, hCB2. The experiment in a line: Agonism of CB2 receptors expressed in CHO cells, forskolin cAMP assay (Protocol IX.2). It counts as cell-based. Further details: expressed in transfected cells; host or cells: CHO (h-CB2/CHO, G418-selected). As to conditions: cAMP. In outline: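 CHO cells expressing h-CB2 were treated with compound in Krebs buffer with 0.1% FAF BSA and 1 mM IBMX, plus 10 uM forskolin, for 30 minutes at room temperature. cAMP in lysates was measured by chemiluminescence. EC50 was derived by nonlinear regression of dose–response curves, with CP 55,940 at 10 μM as reference for CB2.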
A general note: cAMP levels reflect the balance of adenylyl cyclase and phosphodiesterase activity.

[5] abbreviates: hCB2-CHO membranes, [3H]-CP-55,940 displacement.
Setting [6] is: hCB2 Agonism IC50, h-CB2/CHO cells.

These results are taken from patent US7923465B2, “Cannabinoid receptor ligands, pharmaceutical compositions containing them, and process for their preparation” (priority 2005, dated 2011).

Where two headings read alike, the source gives them in different places.

hCB1, sequence (P21554 whole entry): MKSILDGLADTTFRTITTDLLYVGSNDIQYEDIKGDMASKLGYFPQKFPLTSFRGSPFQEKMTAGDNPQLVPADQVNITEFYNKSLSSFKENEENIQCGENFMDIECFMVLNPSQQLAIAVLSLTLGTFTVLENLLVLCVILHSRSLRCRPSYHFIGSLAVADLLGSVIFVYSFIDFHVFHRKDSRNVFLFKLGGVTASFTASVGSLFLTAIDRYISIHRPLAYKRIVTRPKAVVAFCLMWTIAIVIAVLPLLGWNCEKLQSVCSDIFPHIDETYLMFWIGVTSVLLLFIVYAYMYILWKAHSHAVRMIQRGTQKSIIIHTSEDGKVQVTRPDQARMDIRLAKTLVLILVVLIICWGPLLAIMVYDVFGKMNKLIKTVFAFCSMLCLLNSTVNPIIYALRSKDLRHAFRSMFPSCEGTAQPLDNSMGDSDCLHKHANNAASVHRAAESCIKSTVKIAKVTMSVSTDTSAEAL
T1 sequence (P34972 whole entry): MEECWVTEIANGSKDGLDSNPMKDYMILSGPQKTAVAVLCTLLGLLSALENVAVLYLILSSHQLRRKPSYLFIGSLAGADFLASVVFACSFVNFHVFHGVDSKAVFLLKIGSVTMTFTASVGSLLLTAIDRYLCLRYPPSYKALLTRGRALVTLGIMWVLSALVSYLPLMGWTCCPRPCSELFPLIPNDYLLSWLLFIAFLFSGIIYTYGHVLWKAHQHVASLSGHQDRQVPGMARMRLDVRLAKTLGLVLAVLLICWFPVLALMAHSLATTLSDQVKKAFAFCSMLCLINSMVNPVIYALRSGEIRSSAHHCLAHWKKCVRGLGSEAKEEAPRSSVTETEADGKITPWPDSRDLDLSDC

The melting point is the temperature of the solid-liquid transition. Usually IC50 stands for the concentration needed to halve the response being measured. For the compound `O=C(NNc1ccccc1Br)c1nn(-c2ccc(Cl)cc2Cl)c2c1C1CCC2C1` (stereo not shown) [Example 263, N(3)-[(2-Bromophenyl)amino]-1-(2,4-dichlorophenyl)-4,5,6,7-tetrahydro-1H-4,7-methano-indazole-3-carboxamide], the melting point came to 159 °C. This compound also displayed an inhibition at 1 µM in data set [1] (at 1 uM) of 72.1%. For the same compound, the inhibition at 0.3 µM in data set [2] (setting [5]) was determined as 79%. The compound also returned an inhibition at 10 µM in data set [3] of 27.1%. This compound also yielded an IC50 in data set [4] (setting [6]) of 2.5 nM.

As for `O=C(NC1CCCCC1)c1nn(-c2ccc(Br)cc2)c2c1C1CCC2C1` (stereo not shown) [Example 275, N(3)-Cyclohexyl-1-(4-bromophenyl)-4,5,6,7-tetrahydro-1H-4,7-methano-indazole-3-carboxamide], the melting point stood at 164 °C. Further, the inhibition at 10 µM in data set [1] (at 10 uM) is 0%. The inhibition at 0.3 µM in data set [2] (setting [5]) was 72.3%. In data set [3], this compound showed an inhibition at 10 µM of 19.1%. Further, the IC50 in data set [4] (setting [6]) is 4.49 nM.

Compound `O=C(NCc1ccccc1Cl)c1nn(-c2ccc(Cl)cc2)c2c1C1CCC2C1` (stereo not shown) [Example 221, N(3)-(2-Chlorobenzyl)-1-(4-chlorophenyl)-4,5,6,7-tetrahydro-1H-4,7-methano-indazole-3-carboxamide] gave a melting point of 119 to 122 °C. In addition, in data set [1] (at 10 uM), the inhibition at 10 µM is 0%. Further, in data set [2], the inhibition at 0.3 µM was 75.7%. In data set [3], this compound returned an inhibition at 10 µM of 30.1%. Also, the half-inhibitory concentration (IC50) in data set [4] (h-CB2/CHO cells, read-out: hCB2 Agonism IC50) was 36.4 nM.

Turning to `O=C(NNc1ccc(Cl)cc1Cl)c1nn(-c2ccc(Cl)cc2Cl)c2c1C1CCC2C1` (stereo not shown) [Example 260, N(3)-[(2,4-Dichlorophenyl)amino]-1-(2,4-dichlorophenyl)-4,5,6,7-tetrahydro-1H-4,7-methano-indazole-3-carboxamide], in data set [2] (setting [5]), the inhibition at 0.3 µM came out at 80.2%. The compound further registered an inhibition at 10 µM in data set [3] of 34.8%. In data set [4] (setting [6]), this compound yielded a half-maximal inhibitory concentration (IC50) of 4.1 nM.

As to `O=C(NCc1ccc(Cl)cc1Cl)c1nn(-c2ccc(Cl)cc2Cl)c2c1C1CCC2C1` (stereo not shown) [Example 251, N(3)-(2,4-Dichlorobenzyl)-1-(2,4-dichlorophenyl)-4,5,6,7-tetrahydro-1H-4,7-methano-indazole-3-carboxamide], the melting point fell in the range of 57 to 59 °C. For the same compound, in data set [1] (at 10 uM), the inhibition at 10 µM is 0%. Moreover, in data set [2] (setting [5]), the inhibition at 0.3 µM worked out at 60.2%. This compound also registered an inhibition at 10 µM in data set [3] of 40.8%. For the same compound, inhibition in data set [4] (setting [6]) was half-maximal at 40.2 nM (IC50).

Compound `O=C(NNc1ccccc1Cl)c1nn(-c2ccc(Cl)cc2Cl)c2c1C1CCC2C1` (stereo not shown) [Example 257, N(3)-[(2-Chlorophenyl)amino]-1-(2,4-dichlorophenyl)-4,5,6,7-tetrahydro-1H-4,7-methano-indazole-3-carboxamide] showed a melting point of 180 to 183 °C. Besides, the inhibition at 0.3 µM in data set [2] (setting [5]) was 83.9%. Moreover, the inhibition at 10 µM in data set [3] came out at 37.5%. This compound yielded an IC50 in data set [4] (setting [6]) of 3.7 nM.

As to `O=C(NN1CCCCC1)c1nn(-c2ccc(Cl)cc2)c2c1C1CC3CC(C1)CC2C3` [Example 140, N(7)-Piperidino-5-(4′-chlorophenyl)-5,6-diazatetracyclo[7.3.1.1^3,11.0^4,8]tetradeca-4(8)-6-diene-7-carboxamide], the “hCB1 Antagonism” value in data set [1] (at 10 uM) is reported as 19.31% at. The “% Displacement Protocol IV” value in data set [2] (setting [5]) is 15.79%.

Regarding `CN(NC(=O)c1nn(-c2ccc(Cl)cc2)c2c1C1CCC2C1)C1CCCCC1` (stereo not shown) [Example 213, N(3)-[(N-Cyclohexyl-N-methyl)amino]-1-(4-chlorophenyl)-4,5,6,7-tetrahydro-1H-4,7-methano-indazole-3-carboxamide], the melting point turned out to be 62 °C. For the same compound, the inhibition at 10 µM in data set [1] (at 10 uM) amounted to 0%. In data set [2] (setting [5]), the inhibition at 0.3 µM was 71.8%. Besides, in data set [3], the inhibition at 10 µM was 22.1%. Besides, half-maximal inhibition in data set [4] (setting [6]) (IC50) was put at 12.7 nM.
